Tests used:
[1] = molecular target: T1, Chemerin-like receptor 1 (Homo sapiens) (UniProt Q99788); settings: CAL1
T1 sequence (whole entry): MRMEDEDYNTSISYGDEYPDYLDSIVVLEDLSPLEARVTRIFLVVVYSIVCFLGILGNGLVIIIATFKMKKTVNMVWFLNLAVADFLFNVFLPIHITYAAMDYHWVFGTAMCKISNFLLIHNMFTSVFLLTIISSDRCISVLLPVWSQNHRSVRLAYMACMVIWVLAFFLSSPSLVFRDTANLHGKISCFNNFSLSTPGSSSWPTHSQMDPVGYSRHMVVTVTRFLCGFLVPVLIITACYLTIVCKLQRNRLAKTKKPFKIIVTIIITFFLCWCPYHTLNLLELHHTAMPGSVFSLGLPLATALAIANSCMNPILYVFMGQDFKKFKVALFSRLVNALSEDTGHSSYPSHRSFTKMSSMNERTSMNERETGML
Description: Inhibition of human ChemR23 expressed in CAL-1 cells assessed as reduction in chemerin-induced calcium signaling

[2] = Cmax in cynomolgus monkey at 1 mg/kg, po; assay type: ADME, organism-based, Macaca fascicularis; design: dose 1 mg/kg, route po; settings: in vivo
[3] = Drug concentration in cynomolgus monkey plasma at 1 mg/kg, po after 8 hrs; assay type: ADME, organism-based, Macaca fascicularis
[4] = AUC(0 to infinity) in cynomolgus monkey at 1 mg/kg, po; assay type: ADME, organism-based, Macaca fascicularis; design: time infinity, dose 1 mg/kg, route po; settings: in vivo
[5] = Cmax in cynomolgus monkey at 0.3 to 1 mg/kg, po; assay type: ADME, organism-based, Macaca fascicularis; design: route po; settings: in vivo, dose 0.3-1 mg/kg
[6] = AUC(0 to infinity) in cynomolgus monkey at 0.3 to 1 mg/kg, po; assay type: ADME, organism-based, Macaca fascicularis; design: route po; settings: in vivo, dose 0.3-1 mg/kg
[7] = Half life in cynomolgus monkey at 0.3 to 1 mg/kg, po; assay type: ADME, organism-based, Macaca fascicularis; settings: in vivo, dose 0.3-1 mg/kg
[8] = MRT in cynomolgus monkey at 0.3 to 1 mg/kg, po; assay type: ADME, organism-based, Macaca fascicularis; settings: in vivo, dose 0.3-1 mg/kg
[9] = Tmax in cynomolgus monkey at 0.3 to 1 mg/kg, po; assay type: ADME, organism-based, Macaca fascicularis; settings: in vivo, dose 0.3-1 mg/kg
[10] = MRT in cynomolgus monkey at 0.3 mg/kg, po; assay type: ADME, organism-based, Macaca fascicularis; settings: in vivo
[11] = Tmax in cynomolgus monkey at 0.3 mg/kg, po; assay type: ADME, organism-based, Macaca fascicularis; settings: in vivo
[12] = Drug concentration in cynomolgus monkey plasma at 0.3 mg/kg, po after 8 hrs; assay type: ADME, organism-based, Macaca fascicularis
[13] = Half life in cynomolgus monkey at 0.3 mg/kg, po; assay type: ADME, organism-based, Macaca fascicularis; settings: in vivo
[14] = Cmax in cynomolgus monkey at 0.3 mg/kg, po; assay type: ADME, organism-based, Macaca fascicularis; design: dose 0.3 mg/kg, route po; settings: in vivo
[15] = AUC(0 to infinity) in cynomolgus monkey at 0.3 mg/kg, po; assay type: ADME, organism-based, Macaca fascicularis; design: time infinity, dose 0.3 mg/kg, route po; settings: in vivo

Compound: Cc1ccc(-c2nc(=O)o[nH]2)c(-c2ccc([C@@H](C)N(CC3CC3)c3nc(C(=O)NS(=O)(=O)C4CC4)c(-c4ccsc4)s3)cc2)c1
- IC80 [1]: > 330 nM

Compound: C[C@H](c1ccc(-c2cc(Cl)ccc2C(=O)O)cc1)N(CC1CC1)c1nc(C(=O)NS(=O)(=O)C2CC2)c(C2CC2)s1
- IC80 [1]: 24 nM

Compound: Cc1ccc(-c2nc(=O)o[nH]2)c(-c2ccc([C@@H](C)N(CC3CC3)c3nc(C(=O)NS(=O)(=O)C4CC4)c(C4CCOC4)s3)cc2)c1 (stereo not given in full)
- IC80 [1]: 12 nM

Compound: Cc1ccc(-c2nc(=O)o[nH]2)c(-c2ccc([C@@H](C)N(CC3CC3)c3nc(C(=O)NS(=O)(=O)C4CC4)c(-c4ccoc4)s3)cc2)c1
- IC80 [1]: > 330 nM

Compound: CCCc1sc(N(CC2CC2)[C@H](C)c2ccc(-c3cc(C)ccc3-c3nc(=O)o[nH]3)cc2)nc1C(=O)NS(=O)(=O)C1CC1
- IC80 [1]: 25 nM

Compound: CCS(=O)(=O)NC(=O)c1nc(N(CC2CC2)[C@H](C)c2ccc(-c3cc(Cl)ccc3-c3nc(=O)o[nH]3)cc2)sc1C
- Cmax [2]: 716 ng/mL
- concentration at 8 h [3]: 14 ng/mL
- AUC(0-inf) [4]: 2170 ng·h/mL

Compound: Cc1ccc(-c2nc(=O)o[nH]2)c(-c2ccc([C@@H](C)N(CC3CC3)c3nc(C(=O)NS(=O)(=O)C4CC4)c(-c4ccncc4)s3)cc2)c1
- IC80 [1]: 74 nM

Compound: Cc1ccc(-c2nc(=O)o[nH]2)c(-c2ccc([C@@H](C)N(CC3CC3)c3nc(C(=O)NS(=O)(=O)C4CC4)c(C4CCC4)s3)cc2)c1
- Cmax [5]: 7910 ng/mL
- IC80 [1]: 130 nM
- AUC(0-inf) [6]: 55800 ng·h/mL
- concentration at 8 h [3]: 2600 ng/mL
- half-life [7]: 2.8 h
- MRT [8]: 5.7 h
- Tmax [9]: 2.7 h

Compound: CNC(=O)c1ccc(Cl)cc1-c1ccc([C@@H](C)N(CC2CC2)c2nc(C(=O)NS(=O)(=O)C3CC3)c(C3CC3)s2)cc1
- IC80 [1]: 9 nM
- MRT [10]: 6.4 h
- Tmax [11]: 4 h
- concentration at 8 h [12]: 453 ng/mL
- half-life [13]: 3.6 h
- Cmax [14]: 897 ng/mL
- AUC(0-inf) [15]: 8720 ng·h/mL

Compound: Cc1ccc(-c2nc(=O)o[nH]2)c(-c2ccc([C@@H](C)N(CC3CC3)c3nc(C(=O)NS(=O)(=O)C4CC4)c(-c4ccccc4)s3)cc2)c1
- IC80 [1]: > 330 nM

Compound: COc1cccc(-c2sc(N(CC3CC3)[C@H](C)c3ccc(-c4cc(C)ccc4-c4nc(=O)o[nH]4)cc3)nc2C(=O)NS(=O)(=O)C2CC2)c1
- IC80 [1]: 42 nM

Compound: CCc1sc(N(CC2CC2)[C@H](C)c2ccc(-c3cc(C)ccc3-c3nc(=O)o[nH]3)cc2)nc1C(=O)NS(=O)(=O)C1CC1
- Cmax [5]: 5970 ng/mL
- IC80 [1]: 63 nM
- AUC(0-inf) [6]: 10300 ng·h/mL
- concentration at 8 h [3]: 85.7 ng/mL
- half-life [7]: 3 h
- MRT [8]: 2.9 h
- Tmax [9]: 1.7 h

Compound: C[C@H](c1ccc(-c2cc(Cl)ccc2C(N)=O)cc1)N(CC1CC1)c1nc(C(=O)NS(=O)(=O)C2CC2)c(C2CC2)s1
- IC80 [1]: 9.8 nM
- MRT [10]: 3.4 h
- Tmax [11]: 1.3 h
- concentration at 8 h [12]: 68.9 ng/mL
- half-life [13]: 1.8 h
- Cmax [14]: 730 ng/mL
- AUC(0-inf) [15]: 2950 ng·h/mL

Compound: Cc1sc(N(CC2CC2)[C@H](C)c2ccc(-c3cc(Cl)ccc3-c3nc(=O)o[nH]3)cc2)nc1C(=O)O
- Cmax [2]: 646 ng/mL
- concentration at 8 h [3]: 7.9 ng/mL
- AUC(0-inf) [4]: 2210 ng·h/mL

Compound: Cc1sc(N(CC2CC2)[C@H](C)c2ccc(-c3cc(Cl)ccc3-c3nc(=O)o[nH]3)cc2)nc1C(=O)NS(C)(=O)=O
- Cmax [2]: 216 ng/mL
- concentration at 8 h [3]: 4.2 ng/mL
- AUC(0-inf) [4]: 726 ng·h/mL

Compound: Cc1sc(N(CC2CC2)[C@H](C)c2ccc(-c3cc(Cl)ccc3-c3nc(=O)o[nH]3)cc2)nc1C(=O)NS(=O)(=O)C1CC1
- Cmax [2]: 1210 ng/mL
- concentration at 8 h [3]: 18 ng/mL
- AUC(0-inf) [4]: 3740 ng·h/mL

Compound: Cc1ccc(-c2nc(=O)o[nH]2)c(-c2ccc([C@@H](C)N(CC3CC3)c3nc(C(=O)NS(=O)(=O)C4CC4)c(CC(C)C)s3)cc2)c1
- Cmax [5]: 4250 ng/mL
- IC80 [1]: 42 nM
- AUC(0-inf) [6]: 21900 ng·h/mL
- concentration at 8 h [3]: 772 ng/mL
- half-life [7]: 2.3 h
- MRT [8]: 4.9 h
- Tmax [9]: 2.7 h

Compound: Cc1sc(N(CC2CC2)[C@H](C)c2ccc(-c3cc(Cl)ccc3-c3nc(=O)o[nH]3)cc2)nc1C(=O)NS(=O)(=O)C1(C)CC1
- IC80 [1]: 110 nM

Compound: Cc1ccc(-c2nc(=O)o[nH]2)c(-c2ccc([C@@H](C)N(CC3CC3)c3nc(C(=O)NS(=O)(=O)C4CC4)c(C)s3)cc2)c1
- Cmax [5]: 3180 ng/mL
- IC80 [1]: 53 nM
- AUC(0-inf) [6]: 12500 ng·h/mL
- concentration at 8 h [3]: 233 ng/mL
- half-life [7]: 2.1 h
- MRT [8]: 4.2 h
- Tmax [9]: 3.3 h

Compound: Cc1sc(N(CC2CC2)[C@H](C)c2ccc(-c3cc(Cl)ccc3-c3nc(=O)o[nH]3)cc2)nc1C(=O)NS(=O)(=O)C1CCCC1
- IC80 [1]: 66 nM
- Cmax [2]: 722 ng/mL
- concentration at 8 h [3]: 10 ng/mL
- AUC(0-inf) [4]: 1730 ng·h/mL

Compound: Cc1ccc(-c2nc(=O)o[nH]2)c(-c2ccc([C@@H](C)N(CC3CC3)c3nc(C(=O)NS(=O)(=O)C4CC4)c(C(C)C)s3)cc2)c1
- Cmax [5]: 5670 ng/mL
- IC80 [1]: 18 nM
- AUC(0-inf) [6]: 33800 ng·h/mL
- concentration at 8 h [3]: 1140 ng/mL
- half-life [7]: 2.4 h
- MRT [8]: 5.2 h
- Tmax [9]: 4 h

Compound: Cc1ccc(-c2nc(=O)o[nH]2)c(-c2ccc([C@@H](C)N(CC3CC3)c3nc(C(=O)NS(=O)(=O)C4CC4)c(-c4cccnc4)s3)cc2)c1
- IC80 [1]: 39 nM

Compound: COCCc1sc(N(CC2CC2)[C@H](C)c2ccc(-c3cc(C)ccc3-c3nc(=O)o[nH]3)cc2)nc1C(=O)NS(=O)(=O)C1CC1
- Cmax [5]: 3530 ng/mL
- IC80 [1]: 33 nM
- AUC(0-inf) [6]: 12800 ng·h/mL
- concentration at 8 h [3]: 274 ng/mL
- half-life [7]: 2.6 h
- MRT [8]: 4.2 h
- Tmax [9]: 2.7 h

Compound: CCONC(=O)c1ccc(Cl)cc1-c1ccc([C@@H](C)N(CC2CC2)c2nc(C(=O)NS(=O)(=O)C3CC3)c(C3CC3)s2)cc1
- MRT [10]: 5.3 h
- Tmax [11]: 4 h
- concentration at 8 h [12]: 87.7 ng/mL
- half-life [13]: 2.6 h
- Cmax [14]: 296 ng/mL
- AUC(0-inf) [15]: 2060 ng·h/mL

Compound: Cc1sc(N(CC2CC2)[C@H](C)c2ccc(-c3cc(Cl)ccc3-c3nc(=O)o[nH]3)cc2)nc1C(=O)NC1CC1
- IC80 [1]: > 330 nM

Compound: CONC(=O)c1ccc(Cl)cc1-c1ccc([C@@H](C)N(CC2CC2)c2nc(C(=O)NS(=O)(=O)C3CC3)c(C3CC3)s2)cc1
- MRT [10]: 5.3 h
- Tmax [11]: 2.7 h
- concentration at 8 h [12]: 116 ng/mL
- half-life [13]: 3.3 h
- Cmax [14]: 484 ng/mL
- AUC(0-inf) [15]: 3290 ng·h/mL

Reference: ChEMBL document CHEMBL5154705, “Discovery and mechanistic study of thiazole-4-acylsulfonamide derivatives as potent and orally active ChemR23 inhibitors with a long-acting effect in cynomolgus monkeys” (Bioorg Med Chem, 2022)
